Data taken from patent US7528138B2, “Pyrazolo[1,5-a]pyrimidines useful as inhibitors of protein kinases” (Vertex Pharmaceuticals Incorporated, priority 2004, dated 2009).

How the values were obtained:
Aurora-2 = biological target: T1, Aurora-2 (Homo sapiens, UniProt O14965); experiment: Aurora-A (Aurora-2) Inhibition Assay, coupled enzyme assay; format: biochemical; conditions: enzyme inhibition data (Ki), Table 11; read-out: AurA Ki
T1 sequence (O14965 1-403): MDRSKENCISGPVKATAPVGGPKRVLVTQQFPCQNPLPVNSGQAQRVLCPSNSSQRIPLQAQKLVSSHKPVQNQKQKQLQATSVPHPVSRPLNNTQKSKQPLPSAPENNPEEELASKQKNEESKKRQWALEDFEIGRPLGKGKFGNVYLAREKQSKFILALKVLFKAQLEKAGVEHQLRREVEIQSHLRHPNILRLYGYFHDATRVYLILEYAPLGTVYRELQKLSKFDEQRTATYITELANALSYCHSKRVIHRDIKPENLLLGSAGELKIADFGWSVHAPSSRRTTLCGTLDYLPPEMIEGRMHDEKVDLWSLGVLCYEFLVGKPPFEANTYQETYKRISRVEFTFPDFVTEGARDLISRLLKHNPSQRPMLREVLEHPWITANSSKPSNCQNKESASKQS
Protocol: Compounds are screened for their ability to inhibit Aurora-2 using a standard coupled enzyme assay (Fox et al., Protein Sci., (1998) 7, 2249). Assays are carried out in a mixture of 100 mM Hepes (pH7.5), 10 mM MgCl2, 1 mM DTT, 25 mM NaCl, 2.5 mM phosphoenolpyruvate, 300 μM NADH, 30 μg/ml pyruvate kinase and 10 μg/ml lactate dehydrogenase. Final substrate concentrations in the assay are 400 μM ATP (Sigma Chemicals) and 570 μM peptide (Kemptide, American Peptide, Sunnyvale, Calif.). Assays are carried out at 30° C. and in the presence of 40 nM Aurora-2.
An assay stock buffer solution is prepared containing all of the reagents listed above, with the exception of Aurora-2 and the test compound of interest. 55 μl of the stock solution is placed in a 96 well plate followed by addition of 2 μl of DMSO stock containing serial dilutions of the test compound (typically starting from a final concentration of 7.5 μM). The plate is preincubated for 10 minutes at 30° C. and the reaction initiated by addition of 10 μl of Aurora-2. Initial reaction rates are determined with a Molecular Devices SpectraMax Plus plate reader over a 10 minute time course. IC50 and Ki data are calculated from non-linear regression analysis using the Prism software package (GraphPad Prism version 3.0cx for Macintosh, GraphPad Software, San Diego Calif., USA).

JAK3 = biological target: T2, JAK3 (Homo sapiens, UniProt P52333); experiment: JAK3 Inhibition Assay, 33P incorporation; format: biochemical; conditions: enzyme inhibition data (Ki), Table 11
T2 sequence (P52333 1-1124): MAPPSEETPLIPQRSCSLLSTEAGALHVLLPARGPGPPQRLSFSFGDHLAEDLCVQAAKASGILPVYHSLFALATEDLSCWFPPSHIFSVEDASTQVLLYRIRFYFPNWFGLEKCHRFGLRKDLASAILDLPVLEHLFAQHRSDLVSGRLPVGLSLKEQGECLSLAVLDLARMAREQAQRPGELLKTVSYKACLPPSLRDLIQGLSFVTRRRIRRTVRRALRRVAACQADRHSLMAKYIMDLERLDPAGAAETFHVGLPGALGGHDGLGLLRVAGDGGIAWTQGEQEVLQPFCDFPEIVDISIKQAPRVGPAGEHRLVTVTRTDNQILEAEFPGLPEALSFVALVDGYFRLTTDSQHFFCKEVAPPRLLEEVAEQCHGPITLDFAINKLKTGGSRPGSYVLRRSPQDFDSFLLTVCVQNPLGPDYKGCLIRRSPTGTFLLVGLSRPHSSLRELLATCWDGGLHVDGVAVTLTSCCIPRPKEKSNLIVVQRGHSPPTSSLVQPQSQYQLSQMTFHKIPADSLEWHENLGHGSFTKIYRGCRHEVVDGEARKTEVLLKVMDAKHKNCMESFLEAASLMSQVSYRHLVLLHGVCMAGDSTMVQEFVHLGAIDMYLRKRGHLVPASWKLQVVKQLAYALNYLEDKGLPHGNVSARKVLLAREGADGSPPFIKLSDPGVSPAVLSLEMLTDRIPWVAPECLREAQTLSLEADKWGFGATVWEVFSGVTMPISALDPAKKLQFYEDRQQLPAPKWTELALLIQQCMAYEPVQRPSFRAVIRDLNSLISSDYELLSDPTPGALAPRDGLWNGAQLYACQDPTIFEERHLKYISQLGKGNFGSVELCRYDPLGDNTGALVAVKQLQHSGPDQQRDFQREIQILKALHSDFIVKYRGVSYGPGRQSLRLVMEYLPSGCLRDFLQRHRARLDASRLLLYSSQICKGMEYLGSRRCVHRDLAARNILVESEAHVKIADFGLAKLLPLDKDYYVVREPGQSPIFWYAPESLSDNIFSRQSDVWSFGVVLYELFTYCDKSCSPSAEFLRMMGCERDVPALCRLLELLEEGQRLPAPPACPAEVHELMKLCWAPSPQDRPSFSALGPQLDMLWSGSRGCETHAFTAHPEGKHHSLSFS
How it was run: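 Recombinant JAK3 at 1 nM in HEPES pH 7.4 buffer with 10 mM MgCl2, 1 mM DTT and 0.01% BSA. Substrates were 5 μM ATP (200 uCi/μmole) and 1 μM poly(Glu)4Tyr, reacted 20 min at 25 °C. Stopped with TCA, and 33P incorporation counted on glass fiber filters.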

Compound | Ki (Aurora-2) | Ki (JAK3)
NC1NN2C=C(c3cccc(CN4CCCNCC4)c3)C=NC2=C1c1ccccn1 (centres unmarked) [Compound V-228] | 500 to 5000 nM | > 5 µM
Nc1nn2cc(-c3cccc(C(=O)N4CCCC4CO)n3)cnc2c1-c1ccccn1 (centres unmarked) [Compound V-112] | 500 to 5000 nM | > 5 µM
CN(C)Cc1cccc(-c2cnc3c(-c4ccccn4)c(N)nn3c2)c1 [Compound V-215] | 500 to 5000 nM | > 5 µM
Nc1nn2cc(C#CCO)cnc2c1-c1ccccn1 [Compound V-238] | 500 to 5000 nM | 0.5 to 5 µM
Nc1nn2cc(-c3ccc(N4CCC(N)CC4)nc3)cnc2c1-c1ccccn1 [Compound V-165] | < 500 nM | > 5 µM
COc1ccccc1Nc1cc(-c2c(N)nn3cc(-c4ccncc4)cnc23)ncn1 [Compound V-242] | < 500 nM | < 0.5 µM
Nc1nn2cc(-c3ccc(CN4CCC(N)CC4)cc3)cnc2c1-c1ccccn1 [Compound V-234] | < 500 nM | 0.5 to 5 µM
Nc1nn2cc(-c3ccc(C(=O)N4CCC[C@H]4CN4CCCC4)cn3)cnc2c1-c1ccccn1 [Compound V-177] | < 500 nM | 0.5 to 5 µM
CCN1CCN(c2ccc(-c3cnc4c(-c5ccccn5)c(N)nn4c3)cn2)CC1 [Compound V-166] | 500 to 5000 nM | > 5 µM
Nc1nn2cc(-c3ccncc3)cnc2c1-c1ncccc1OCc1ccccc1 [Compound V-134] | 500 to 5000 nM | > 5 µM
Nc1nn2cc(-c3cccc(CN4CCNCC4)c3)cnc2c1-c1ccccn1 [Compound V-223] | 500 to 5000 nM | 0.5 to 5 µM
NCc1ccc(-c2cnc3c(-c4ccccn4)c(N)nn3c2)cc1 [Compound V-195] | < 500 nM | 0.5 to 5 µM
CNCCCN(C)C(=O)c1cccc(-c2cnc3c(-c4ccccn4)c(N)nn3c2)c1 [Compound V-190] | 500 to 5000 nM | 0.5 to 5 µM
COCCCN1CCN(C(=O)c2ccc(-c3cnc4c(-c5ccccn5)c(N)nn4c3)nc2)CC1 [Compound V-129] | < 500 nM | 0.5 to 5 µM
CN(CCCN)C(=O)c1cccc(-c2cnc3c(-c4ccccn4)c(N)nn3c2)n1 [Compound V-155] | 500 to 5000 nM | 0.5 to 5 µM
Nc1nn2cc(-c3ccc(C(=O)NC4CCCO4)cn3)cnc2c1-c1ccccn1 (centres unmarked) [Compound V-96] | 500 to 5000 nM | > 5 µM
NC1CCN(Cc2cccc(C3=CN4NC(N)C(c5ccccn5)=C4N=C3)c2)CC1 (centres unmarked) [Compound V-229] | 500 to 5000 nM | > 5 µM
NC1NN2C=C(c3cccc(CN4CC[C@@H](N)C4)c3)C=NC2=C1c1ccccn1 (some centres unmarked) [Compound V-226] | 500 to 5000 nM | > 5 µM
Nc1nn2cc(-c3cccc(CN4CCOCC4)c3)cnc2c1-c1ccccn1 [Compound V-225] | 500 to 5000 nM | > 5 µM
CCN(CCC#N)C(=O)c1cccc(-c2cnc3c(-c4ccccn4)c(N)nn3c2)n1 [Compound V-116] | 500 to 5000 nM | > 5 µM
Nc1nn2cc(-c3ccc(CN4CCOCC4)cc3)cnc2c1-c1ccccn1 [Compound V-208] | < 500 nM | 0.5 to 5 µM
Nc1nn2cc(-c3cccc(N4CCNCC4)c3)cnc2c1-c1ccccn1 [Compound V-222] | < 500 nM | 0.5 to 5 µM
Cc1cccnc1-c1c(N)nn2cc(-c3ccncc3)cnc12 [Compound V-135] | 500 to 5000 nM | > 5 µM
Cc1cccc(-c2c(N)nn3cc(-c4ccncc4)cnc23)n1 [Compound V-178] | < 500 nM | > 5 µM
CNCCCN(C)C(=O)c1ccc(-c2cnc3c(-c4ccccn4)c(N)nn3c2)cc1 [Compound V-191] | < 500 nM | 0.5 to 5 µM
CN(CCC#N)C(=O)c1cccc(-c2cnc3c(-c4ccccn4)c(N)nn3c2)n1 [Compound V-114] | 500 to 5000 nM | > 5 µM
CN(C)Cc1ccc(-c2cnc3c(-c4ccccn4)c(N)nn3c2)cc1 [Compound V-214] | < 500 nM | 0.5 to 5 µM
Nc1nn2cc(-c3ccc(N4CCC[C@@H]4CN4CCCC4)nc3)cnc2c1-c1ccccn1 [Compound V-176] | 500 to 5000 nM | 0.5 to 5 µM
CC(C)CN(C)C(=O)c1ccc(-c2cnc3c(-c4ccccn4)c(N)nn3c2)nc1 [Compound V-97] | < 500 nM | 0.5 to 5 µM

Further lines, results first:

Ki (Aurora-2) | Ki (JAK3) | Compound
500 to 5000 nM | > 5 µM | NCc1cccc(-c2cnc3c(-c4ccccn4)c(N)nn3c2)c1 [Compound V-202]
< 500 nM | < 0.5 µM | CC(C)CN(C)c1cc(-c2c(N)nn3cc(-c4ccncc4)cnc23)ncn1 [Compound V-243]
< 500 nM | < 0.5 µM | CC(C)CNc1cc(-c2c(N)nn3cc(-c4ccncc4)cnc23)ncn1 [Compound V-185]
< 500 nM | < 0.5 µM | CC(C)Nc1cc(-c2c(N)nn3cc(-c4ccncc4)cnc23)ncn1 [Compound V-182]
500 to 5000 nM | 0.5 to 5 µM | CNCCN(C)C(=O)c1cccc(-c2cnc3c(-c4ccccn4)c(N)nn3c2)c1 [Compound V-189]
< 500 nM | > 5 µM | CS(=O)(=O)Nc1cccc(-c2cnc3c(-c4ccccn4)c(N)nn3c2)c1 [Compound V-18]
500 to 5000 nM | > 5 µM | COc1ccccc1-c1cnc2c(-c3ccccn3)c(N)nn2c1 [Compound V-14]
< 500 nM | < 0.5 µM | CCCN(CC)c1cc(-c2c(N)nn3cc(-c4ccncc4)cnc23)ncn1 [Compound V-244]
< 500 nM | 0.5 to 5 µM | CNCCCN(C)Cc1ccc(-c2cnc3c(-c4ccccn4)c(N)nn3c2)cc1 [Compound V-230]
500 to 5000 nM | > 5 µM | CCN(CC)CCN(C)C(=O)c1cccc(-c2cnc3c(-c4ccccn4)c(N)nn3c2)n1 [Compound V-124]
500 to 5000 nM | 0.5 to 5 µM | CC(C)(O)C#Cc1cnc2c(-c3ccccn3)c(N)nn2c1 [Compound V-237]
500 to 5000 nM | 0.5 to 5 µM | Nc1nn2cc(-c3cccc(C(=O)N4CCC[C@@H]4CN4CCCC4)n3)cnc2c1-c1ccccn1 [Compound V-175]
< 500 nM | 0.5 to 5 µM | Cc1ccnc(-c2c(N)nn3cc(-c4ccncc4)cnc23)c1 [Compound V-133]
500 to 5000 nM | > 5 µM | CN1CCC(N(C)C(=O)c2cccc(-c3cnc4c(-c5ccccn5)c(N)nn4c3)n2)CC1 [Compound V-101]
500 to 5000 nM | > 5 µM | Nc1nn2cc(C(=O)NC3CCCNC3)cnc2c1-c1ccccn1 (centres unmarked) [Compound V-206]
< 500 nM | 0.5 to 5 µM | Nc1nn2cc(-c3ccncc3)cnc2c1-c1cc(NC2CCCCC2)ncn1 [Compound V-183]
500 to 5000 nM | > 5 µM | COC(=O)C1CCCN1C(=O)c1cccc(-c2cnc3c(-c4ccccn4)c(N)nn3c2)n1 (centres unmarked) [Compound V-139]
